Reference: US20250034136A1 (Nimbus Wadjet, Inc., priority 2023, published 2025)
Like-named read-outs stand apart in the source and are kept apart here.

Columns and labels:
[1] = target: WRN (BV08), human Werner helicase (Uniprot Q14191, amino acids 517-1235 with L1074F point mutation) (Homo sapiens (Human), UniProt Q14191, L1074F); assay: WRN (BV08) ADP-Glo assay; format: biochemical; conditions: class symbols A-E, read-out: ADP-Glo_hWRN_IC50
[2] = tested on: p21 induction in HCT116 cells; assay: p21 induction in HCT116 cells; format: cell-based; conditions: HCT116 cells, 24 h compound incubation, read-out: P21_EC50
Outline: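 HCT116 cells, 2,000/well, treated 24 h at 37 °C with 11-point compound dilutions in duplicate. Fixed, then immunostained for p21 and GAPDH and read by near-IR imaging at 800/700 nm. Normalized to DMSO (low) and reference WRN inhibitor (high) controls; EC50 from non-linear regression.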

Chain of WRN (BV08), human Werner helicase (Uniprot Q14191, amino acids 517-1235 with L1074F point mutation) (Q14191 other isoform, or with tags, fused parts or gaps L1074F (already in the parent)): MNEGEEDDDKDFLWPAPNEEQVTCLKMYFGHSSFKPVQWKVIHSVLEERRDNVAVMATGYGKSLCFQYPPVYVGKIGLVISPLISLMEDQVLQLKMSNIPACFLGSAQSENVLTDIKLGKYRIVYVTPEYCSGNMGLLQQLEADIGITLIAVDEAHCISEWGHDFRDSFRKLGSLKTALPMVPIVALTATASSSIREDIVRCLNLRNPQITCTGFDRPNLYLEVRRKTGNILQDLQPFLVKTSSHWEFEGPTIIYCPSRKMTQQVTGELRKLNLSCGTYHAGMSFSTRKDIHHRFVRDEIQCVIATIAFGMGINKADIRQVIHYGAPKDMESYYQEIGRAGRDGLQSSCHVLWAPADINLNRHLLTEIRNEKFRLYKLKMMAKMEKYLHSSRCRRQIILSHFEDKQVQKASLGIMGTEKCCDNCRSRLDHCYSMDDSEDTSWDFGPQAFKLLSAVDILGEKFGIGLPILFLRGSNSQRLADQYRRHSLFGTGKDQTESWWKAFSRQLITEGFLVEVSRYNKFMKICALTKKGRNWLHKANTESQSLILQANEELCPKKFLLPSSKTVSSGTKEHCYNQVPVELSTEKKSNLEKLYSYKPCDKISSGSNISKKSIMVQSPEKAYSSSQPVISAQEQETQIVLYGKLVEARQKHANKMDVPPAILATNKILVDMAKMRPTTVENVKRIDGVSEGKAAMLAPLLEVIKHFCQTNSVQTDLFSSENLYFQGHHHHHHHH

SMILES	IC50 [1] [nM]	EC50 ([2]; Homo sapiens, HCT-116, 24 h) [nM]	EC50 [2] [nM]
CCc1c(N2CCN(C(=O)c3ncnc(C)c3O)CC2)c(=O)c2nc(N3CC(F)(F)C3)cnc2n1CC(=O)Nc1ccc(C(F)(F)F)cc1Cl [I-160, N-[2-chloro-4-(trifluoromethyl)phenyl]-2-[2-(3,3-difluoroazetidin-1-yl)-6-ethyl-7-[4-(5-hydroxy-6-methylpyrimidine-4-carbonyl)piperazin-1-yl]-8-oxo-5H,8H-pyrido[2,3-b]pyrazin-5-yl]acetamide]	5 to 50	> 5000	–
CCc1c(N2CCN(C(=O)c3ncnc(C)c3O)[C@H]3CC[C@@H]32)c(=O)c2nc(N(C)[C@@H]3CC[C@H](O)C3)cnc2n1CC(=O)Nc1ccc(C(F)(F)F)cc1Cl [I-300, N-[2-chloro-4-(trifluoromethyl)phenyl]-2-{6-ethyl-7-[(1S,6S)-5-(5-hydroxy-6-methylpyrimidine-4-carbonyl)-2,5-diazabicyclo[4.2.0]octan-2-yl]-2-{[(1R,3S)-3-hydroxycyclopentyl](methyl)amino}-8-oxo-5H,8H-pyrido[2,3-b]pyrazin-5-yl}acetamide]	5 to 50	< 500	–
CCc1c(N2CCN(C(=O)c3ncnc(C)c3O)CC2)c(=O)c2nc(NC3CCC3)cnc2n1CC(=O)Nc1ccc(C(F)(F)F)cc1Cl [I-161, N-[2-chloro-4-(trifluoromethyl)phenyl]-2-[2-(cyclobutylamino)-6-ethyl-7-[4-(5-hydroxy-6-methylpyrimidine-4-carbonyl)piperazin-1-yl]-8-oxo-5H,8H-pyrido[2,3-b]pyrazin-5-yl]acetamide]	5 to 50	2000 to 5000	–
CCc1c(N2CCN(C(=O)c3ncnc(C)c3O)CC2)c(=O)c2nc(N(C)C)cnc2n1CC(=O)NC12CC(C(F)(F)F)(C1)C2 [I-108, 2-(2-(dimethylamino)-6-ethyl-7-(4-(5-hydroxy-6-methylpyrimidine-4-carbonyl)piperazin-1-yl)-8-oxopyrido[2,3-b]pyrazin-5(8H)-yl)-N-(3-(trifluoromethyl)bicyclo[1.1.1]pentan-1-yl)acetamide]	100 to 500	> 5000	–
CCc1c(N2CCN(C(=O)c3ncnc(C)c3O)[C@H]3CC[C@@H]32)c(=O)c2nc(N3CC(OC)C3)cnc2n1CC(=O)Nc1ccc(C(F)(F)F)cc1Cl [I-242, N-[2-chloro-4-(trifluoromethyl)phenyl]-2-{6-ethyl-7-[(1S,6S)-5-(5-hydroxy-6-methylpyrimidine-4-carbonyl)-2,5-diazabicyclo[4.2.0]octan-2-yl]-2-(3-methoxyazetidin-1-yl)-8-oxo-5H,8H-pyrido[2,3-b]pyrazin-5-yl}acetamide]	5 to 50	< 500	–
CCc1c(N2CCN(C(=O)c3ncnc(C)c3O)CC2)c(=O)c2nccnc2n1CC(=O)Nc1ccc(C(F)(F)F)cc1Cl [I-46, N-(2-chloro-4-(trifluoromethyl)phenyl)-2-(6-ethyl-7-(4-(5-hydroxy-6-methylpyrimidine-4-carbonyl)piperazin-1-yl)-8-oxopyrido[2,3-b]pyrazin-5(8H)-yl)acetamide]	5 to 50	> 5000	–
CCc1c(N2CCN(C(=O)c3ncnc(C)c3O)C3COCC32)c(=O)c2nc(N(C)C)cnc2n1CC(=O)Nc1ccc(C(F)(F)F)cc1Cl (single isomer, unassigned) [I-279, N-(2-chloro-4-(trifluoromethyl)phenyl)-2-(2-(dimethylamino)-6-ethyl-7-(4-(5-hydroxy-6-methylpyrimidine-4-carbonyl)hexahydrofuro[3,4-b]pyrazin-1(2H)-yl)-8-oxopyrido[2,3-b]pyrazin-5(8H)-yl)acetamide]	100 to 500	–	> 5000
CCc1c(N2CCN(C(=O)c3ncnc(C)c3O)CC2)c(=O)c2nc(-n3cccn3)cnc2n1CC(=O)Nc1ccc(C(F)(F)F)cc1Cl [I-201, N-[2-chloro-4-(trifluoromethyl)phenyl]-2-{6-ethyl-7-[4-(5-hydroxy-6-methylpyrimidine-4-carbonyl)piperazin-1-yl]-8-oxo-2-(1H-pyrazol-1-yl)-5H,8H-pyrido[2,3-b]pyrazin-5-yl}acetamide]	5 to 50	2000 to 5000	–
C=C(C)c1cnc2c(n1)c(=O)c(N1CCN(C(=O)c3ncnc(C)c3O)CC1)c(CC)n2CC(=O)Nc1ccc(C(F)(F)F)cc1Cl [I-9, N-(2-chloro-4-(trifluoromethyl)phenyl)-2-(6-ethyl-7-(4-(5-hydroxy-6-methylpyrimidine-4-carbonyl)piperazin-1-yl)-8-oxo-2-(prop-1-en-2-yl)pyrido[2,3-b]pyrazin-5(8H)-yl)acetamide]	5 to 50	500 to 2000	–
CCc1c(N2CCN(C(=O)c3ncnc(C)c3O)[C@H]3CC[C@@H]32)c(=O)c2nc(NC)cnc2n1CC(=O)Nc1ccc(C(F)(F)F)cc1Cl (racemic) [I-97, rac-N-(2-chloro-4-(trifluoromethyl)phenyl)-2-(6-ethyl-7-(-5-(5-hydroxy-6-methylpyrimidine-4-carbonyl)-2,5-diazabicyclo[4.2.0]octan-2-yl)-2-(methylamino)-8-oxopyrido[2,3-b]pyrazin-5(8H)-yl)acetamide]	5 to 50	< 500	–
CCc1c(N2CCN(C(=O)c3ncnc(C)c3O)CC2)c(=O)c2nc(N(C)CCN(C)C)cnc2n1CC(=O)Nc1ccc(C(F)(F)F)cc1Cl [I-154, N-[2-chloro-4-(trifluoromethyl)phenyl]-2-(2-{[2-(dimethylamino)ethyl](methyl)amino}-6-ethyl-7-[4-(5-hydroxy-6-methylpyrimidine-4-carbonyl)piperazin-1-yl]-8-oxo-5H,8H-pyrido[2,3-b]pyrazin-5-yl)acetamide]	> 500	> 5000	–
C/C=C/c1nc2c(=O)c(N3CCN(C(=O)c4ncnc(C)c4O)CC3)c(CC)n(CC(=O)Nc3ccc(C(F)(F)F)cc3Cl)c2nc1C [I-21, (E)N-(2-chloro-4-(trifluoromethyl)phenyl)-2-(6-ethyl-7-(4-(5-hydroxy-6-methylpyrimidine-4-carbonyl)piperazin-1-yl)-3-methyl-8-oxo-2-(prop-1-en-1-yl)pyrido[2,3-b]pyrazin-5(8H)-yl)acetamide]	5 to 50	500 to 2000	–
CCc1c(N2CCN(C(=O)c3ncnc(C)c3O)CC2)c(=O)c2nc(/C=C/C(C)(C)O)cnc2n1CC(=O)Nc1ccc(C(F)(F)F)cc1Cl [I-138, N-[2-chloro-4-(trifluoromethyl)phenyl]-2-{6-ethyl-2-[(1E)-3-hydroxy-3-methylbut-1-en-1-yl]-7-[4-(5-hydroxy-6-methylpyrimidine-4-carbonyl)piperazin-1-yl]-8-oxo-5H,8H-pyrido[2,3-b]pyrazin-5-yl}acetamide]	5 to 50	> 5000	–
CCc1c(N2CCN(C(=O)c3c(C#N)cnc(C)c3O)CC2)c(=O)c2ncc(C)nc2n1CC(=O)Nc1ccc(C(F)(F)F)cc1Cl [I-145, N-[2-chloro-4-(trifluoromethyl)phenyl]-2-{7-[4-(5-cyano-3-hydroxy-2-methylpyridine-4-carbonyl)piperazin-1-yl]-6-ethyl-3-methyl-8-oxo-5H,8H-pyrido[2,3-b]pyrazin-5-yl}acetamide]	5 to 50	> 5000	–
CCc1c(N2CCN(C(=O)c3ncnc(C)c3O)[C@H]3CC[C@@H]32)c(=O)c2nc(N(C)C)cnc2n1CC(=O)Nc1ccc(OC(F)(F)F)cc1 [I-120, 2-[2-(dimethylamino)-6-ethyl-7-[(1S,6S)-5-(5-hydroxy-6-methylpyrimidine-4-carbonyl)-2,5-diazabicyclo[4.2.0]octan-2-yl]-8-oxo-5H,8H-pyrido[2,3-b]pyrazin-5-yl]-N-[4-(trifluoromethoxy)phenyl]acetamide]	5 to 50	< 500	–
CCc1c(N2CCN(C(=O)c3c(OC)ncc(C)c3O)[C@H]3CCC[C@@H]32)c(=O)c2nc(N(C)C)cnc2n1CC(=O)Nc1ccc(C(F)(F)F)cc1Cl [I-243, 2-{7-[(4aS,7aS)-4-(4-hydroxy-2-methoxy-5-methylpyridine-3-carbonyl)-octahydro-1H-cyclopenta[b]pyrazin-1-yl]-2-(dimethylamino)-6-ethyl-8-oxo-5H,8H-pyrido[2,3-b]pyrazin-5-yl}-N-[2-chloro-4-(trifluoromethyl)phenyl]acetamide]	5 to 50	< 500	–
CCc1c(N2CCN(C(=O)c3ncnc(C)c3O)[C@H]3CC[C@@H]32)c(=O)c2nc(NC)cnc2n1CC(=O)Nc1ccc(C(F)(F)F)cc1Cl [I-227, N-[2-chloro-4-(trifluoromethyl)phenyl]-2-{6-ethyl-7-[(1S,6S)-5-(5-hydroxy-6-methylpyrimidine-4-carbonyl)-2,5-diazabicyclo[4.2.0]octan-2-yl]-2-(methylamino)-8-oxo-5H,8H-pyrido[2,3-b]pyrazin-5-yl}acetamide]	≤ 5	–	< 500
CCc1c(N2CCN(C(=O)c3ncnc(C)c3O)[C@@H](COC)C2)c(=O)c2nc(N(C)C)cnc2n1CC(=O)Nc1ccc(C(F)(F)F)cc1Cl (single isomer, unassigned) [I-303, N-(2-chloro-4-(trifluoromethyl)phenyl)-2-(2-(dimethylamino)-6-ethyl-7-(4-(5-hydroxy-6-methylpyrimidine-4-carbonyl)-3-(methoxymethyl)piperazin-1-yl)-8-oxopyrido[2,3-b]pyrazin-5(8H)-yl)acetamide]	50 to 100	> 5000	–
CCc1c(N2CCN(C(=O)c3ncnc(C)c3O)[C@H]3CC[C@@H]32)c(=O)c2nc(-c3cncs3)cnc2n1CC(=O)Nc1ccc(C(F)(F)F)cc1Cl [I-272, N-[2-chloro-4-(trifluoromethyl)phenyl]-2-{6-ethyl-7-[(1S,6S)-5-(5-hydroxy-6-methylpyrimidine-4-carbonyl)-2,5-diazabicyclo[4.2.0]octan-2-yl]-8-oxo-2-(1,3-thiazol-5-yl)-5H,8H-pyrido[2,3-b]pyrazin-5-yl}acetamide]	5 to 50	< 500	–
